Laboratory results: PMC8414367, “(E)-7-Ethylidene-lithocholic Acid (7-ELCA) Is a Potent Dual Farnesoid X Receptor (FXR) Antagonist and GPBAR1 Agonist Inhibiting FXR-Induced Gene Expression in Hepatocytes and Stimulating Glucagon-like Peptide-1 Secretion From Enteroendocrine Cells” (Frontiers in Pharmacology, 2021)
Where two headings read alike, the source gives them in different places.

Assays:
human FXR [1] = target: T1, human FXR (Homo sapiens, UniProt Q96RI1); assay: FXR luciferase reporter gene assay (FXRE-luc) in HepG2 cells, antagonistic mode; format: cell-based; settings: for remaining activity at 10 µM / remaining activity at 40 µM: HepG2; for remaining activity at 10 µM: tested compound 10 µM
T1 sequence (Q96RI1 1-486): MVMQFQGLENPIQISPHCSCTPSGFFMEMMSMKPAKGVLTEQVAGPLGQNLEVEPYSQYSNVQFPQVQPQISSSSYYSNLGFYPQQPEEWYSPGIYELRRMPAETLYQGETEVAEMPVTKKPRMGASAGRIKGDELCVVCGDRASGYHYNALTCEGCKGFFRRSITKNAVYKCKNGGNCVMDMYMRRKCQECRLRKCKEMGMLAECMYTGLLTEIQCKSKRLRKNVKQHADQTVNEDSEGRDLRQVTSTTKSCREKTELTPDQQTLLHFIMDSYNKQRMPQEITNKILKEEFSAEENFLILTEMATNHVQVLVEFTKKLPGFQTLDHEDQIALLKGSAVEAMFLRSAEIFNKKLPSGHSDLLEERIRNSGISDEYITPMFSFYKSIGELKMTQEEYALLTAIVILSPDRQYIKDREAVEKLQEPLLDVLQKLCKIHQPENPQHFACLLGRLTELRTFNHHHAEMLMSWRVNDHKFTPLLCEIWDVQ
T1 sequence (P19793 1-462 partner): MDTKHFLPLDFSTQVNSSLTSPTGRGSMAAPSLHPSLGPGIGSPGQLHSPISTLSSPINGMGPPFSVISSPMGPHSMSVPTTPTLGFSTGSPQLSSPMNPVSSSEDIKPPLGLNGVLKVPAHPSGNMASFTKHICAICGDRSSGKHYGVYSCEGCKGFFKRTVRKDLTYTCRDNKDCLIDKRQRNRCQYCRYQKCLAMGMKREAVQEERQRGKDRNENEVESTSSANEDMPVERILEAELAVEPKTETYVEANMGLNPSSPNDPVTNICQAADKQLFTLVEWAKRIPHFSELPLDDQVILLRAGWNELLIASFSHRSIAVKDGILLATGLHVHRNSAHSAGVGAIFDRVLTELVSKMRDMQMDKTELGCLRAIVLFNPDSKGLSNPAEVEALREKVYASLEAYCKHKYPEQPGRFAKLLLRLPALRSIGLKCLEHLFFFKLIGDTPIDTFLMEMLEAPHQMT

human FXR [2] = target: T1, human FXR; assay: FXR luciferase reporter gene assay (FXRE-luc) in HepG2 cells, agonistic mode; format: cell-based; settings: 10 µM, 24 h, compound alone
Procedure: FIGURE 3 Interaction of 7-alkylated derivatives of CDCA and 7-ELCA with human FXR in luciferase reporter gene assays. HepG2 cells were transiently co-transfected with the luciferase FXRE-luc construct and with expression pSG5-hFXR, pSG5-hRXRα, and pRL-TK vectors. Cells were treated with indicated concentrations for 24 h alone (A), an agonistic mode) or with 1 µM OCA as an FXR agonist (B–F), an antagonistic mode). […] IC50 values were calculated using concentration-response curves nonlinear fitting in GraphPad software.

AML12 = assay: MTS viability assay; format: cell-based, murine; settings: Mus musculus; AML12, 24 h, MTS; read-out: IC50 (µM), cell viability
Procedure: (§1) The potential cytotoxicity of 7-alkylated chenodeoxycholic acid derivatives were assessed in different human (HepG2, HepaRG and Huh7) and murine (AML12) hepatocyte-derived cell lines. For this purpose, hepatic cells were treated at increasing concentration for 24h and analyzed by MTS viability assay.
(§2) Table S2. Cell viability was determined using the Cell Titer 96 Aqueous One Solution Cell Proliferation Assay (MTS assay) after treatment with test compounds for 24 h in four different hepatic cell lines. Vehicle (0.1% DMSO) and background (10% SDS; v/v, toxic control) controls of cell viability were set to be 100% and 0%, respectively.

MTS viability assay [3] = format: cell-based, murine; settings: mouse, AML12 cells; AML12, 24 h, vehicle = 100%
Procedure: as §1, §2

GPBAR1 = target: T2, GPBAR1 (Homo sapiens, UniProt Q8TDU6); assay: GPBAR1 CRE-luc luciferase reporter assay in HepG2 cells; format: cell-based; settings: 10 µM, 5 h, LCA 10 µM set as 100%
T2 construct: host or cells: HepG2
T2 sequence (Q8TDU6 1-330): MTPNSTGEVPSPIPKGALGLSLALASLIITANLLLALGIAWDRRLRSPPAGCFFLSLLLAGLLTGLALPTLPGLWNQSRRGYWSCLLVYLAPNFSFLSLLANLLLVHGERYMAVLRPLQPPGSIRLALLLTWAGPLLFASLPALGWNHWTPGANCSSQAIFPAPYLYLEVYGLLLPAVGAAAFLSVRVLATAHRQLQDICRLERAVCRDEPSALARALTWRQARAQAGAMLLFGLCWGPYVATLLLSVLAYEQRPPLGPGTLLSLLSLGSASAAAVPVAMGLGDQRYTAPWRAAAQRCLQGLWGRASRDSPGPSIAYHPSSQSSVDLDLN
Procedure: (C) Effects of LCA and 7-ELCA (both at 10 µM) on intracellular generation of cAMP in differentiated NCI-H716 cells after 30 min treatment. The increase in cAMP level (ΔcAMP) is presented as the difference between cAMP concertation in the treated sample after subtraction of the cAMP in the nontreated control sample. (D) Concentration-response curves for activation of GPBAR1 by LCA and 7-ELCA. EC50 values were calculated using nonlinear fitting of concentration-response curves. […] GLP-1 was normalized to protein concentration and GPBAR1 mRNA expression to GAPDH mRNA. Data are presented as a fold to control nontreated (NT) samples. Forskolin (FSK, 10 µM) was used as a GPBAR1-independent activator of cAMP production.

HepaRG = assay: MTS viability assay; format: cell-based, human; settings: Homo sapiens, 24 h, MTS, read-out: IC50 (µM), cell viability
Procedure: as §1, §2

MTS viability assay [4] = format: cell-based, human; settings: human, vehicle = 100%
Procedure: as §1, §2

Huh7 = assay: MTS viability assay; format: cell-based, human; settings: Homo sapiens, Huh-7; Huh7, 24 h, MTS; read-out: IC50 (µM), cell viability
Procedure: as §1, §2

HepG2 = assay: MTS viability assay; format: cell-based, human; settings: Homo sapiens; HepG2, 24 h, MTS; read-out: IC50 (µM), cell viability
Procedure: as §1, §2

NCI-H716 cells = assay: GLP-1 secretion (ELISA) in differentiated NCI-H716 cells; format: cell-based, human; settings: 10 µM, 2 h
[5] = tested on: GPBAR1 mRNA, NCI-H716 cells; assay: GPBAR1 mRNA expression in differentiated NCI-H716 cells; format: cell-based, human; settings: 10 µM, 2 h
Procedure: FIGURE 8 Effects of 7-alkylated derivatives of CDCA and 7-ELCA on the membrane receptor GPBAR1. […]. (B) CRE-luc activation depends on the presence of GPBAR1. (C) Effects of LCA and 7-ELCA (both at 10 µM) on intracellular generation of cAMP in differentiated NCI-H716 cells after 30 min treatment. The increase in cAMP level (ΔcAMP) is presented as the difference between cAMP concertation in the treated sample after subtraction of the cAMP in the nontreated control sample. (D) Concentration-response curves for activation of GPBAR1 by LCA and 7-ELCA. EC50 values were calculated using nonlinear fitting of concentration-response curves. […] (G) 7-ELCA (10 µM) increases GLP-1 secretion in siRNA control but not in siRNA Gpbar1 transfected GLUTag cells after 1 h treatment. GLP-1 was normalized to protein concentration and GPBAR1 mRNA expression to GAPDH mRNA. Data are presented as a fold to control nontreated (NT) samples. Forskolin (FSK, 10 µM) was used as a GPBAR1-independent activator of cAMP production.

FXR [6] = tested on: FXR; parameters: method as in Sun et al., 2018; settings: ref Sun et al., 2018; read-out: IC50, FXR antagonist; cited from earlier work
FXR [7] = tested on: FXR; parameters: method as in Li et al., 2013; Sayin et al., 2013; settings: co-activator assay, ref Li et al., 2013, Sayin et al., read-out: IC50, FXR antagonist; cited from earlier work
various cell lines = assay: MTS viability assay, summary over cell lines; format: cell-based; settings: 24 h, read-out: IC50, cellular viability
Procedure: as §1, §2

[8] = GW4064 1 µM, read-out: relative response (%) to the model FXR ligand activation (set to be 100%), GW4064 1 µM

Q: What does the source list for `C[C@H](CCC(=O)O)[C@H]1CCC2C3C(CC[C@@]21C)[C@@]1(C)CC[C@@H](O)C[C@H]1C[C@]3(O)C1CC1` (stereo partly drawn) [2i, 3α,7α-Dihydroxy-7β-cyclopropyl-5β-cholan-24-oic acid]?
A: remaining activity at 10 µM (human FXR [1]; [8]): 88.4 ± 4.2%; remaining activity at 40 µM (human FXR [1]; tested compound 40 µM, CDCA 20 µM, * = significant effect on cellular viability, read-out: relative response (%) to the model FXR ligand activation (set to be 100%), CDCA 20 µM): 60 ± 5.8%; remaining activity at 40 µM (human FXR [1]; tested compound 40 µM, GW4064 1 µM, * = significant effect on cellular viability, read-out: relative response (%) to the model FXR ligand activation (set to be 100%), GW4064 1 µM): 60.5 ± 5.2%; FXR activation, agonistic mode (in words) (human FXR [2]): significant inhibition of the FXR basal activation; IC50 (AML12): > 200 µM; viability at 24 h, 10 µM (MTS viability assay [3]): 108 ± 3.2%; CRE-luc activation compared to LCA (in words) (GPBAR1): comparable activities to LCA; IC50 (HepaRG): > 200 µM; viability at 24 h, 10 µM (MTS viability assay [4]; HepG2 cells, HepG2, 24 h): 90.9 ± 0.9%; viability at 24 h, 10 µM (MTS viability assay [4]; HepaRG cells): 133 ± 12.2%; viability at 24 h, 10 µM (MTS viability assay [4]; Huh7 cells, Huh7, 24 h): 97.9 ± 10.4%; IC50 (Huh7): > 200 µM; IC50 (HepG2): 178.4 ± 1 µM; melting point: 78 to 82 °C

Q: What does the source list for `C[C@H](CCC(=O)O)[C@H]1CC[C@H]2[C@@H]3CC[C@@H]4C[C@H](O)CC[C@]4(C)[C@H]3CC[C@]12C` [LCA, 3α-hydroxy-5β-cholan-24-oic acid, reference compound]?
A: GLP-1 secretion (NCI-H716 cells): stimulate GLP-1 secretion; GPBAR1 mRNA expression [5]: stimulate

Q: With `C[C@H](CCC(=O)NCC(=O)O)[C@H]1CC[C@H]2[C@@H]3[C@@H](O)C[C@@H]4C[C@H](O)CC[C@]4(C)[C@H]3CC[C@]12C` [GUDCA] as the compound, how does the IC50 (FXR [6]) read?
A: 77.2 µM

Q: What does the source list for `C[C@H](CCC(=O)NCCS(=O)(=O)O)[C@H]1CC[C@H]2[C@@H]3[C@@H](O)[C@@H](O)[C@@H]4C[C@H](O)CC[C@]4(C)[C@H]3CC[C@]12C` [Tβ-MCA, tauro-β-muricholic acid, reference compound]?
A: IC50 (FXR [7]): 40 µM; inhibition of FXR activation (human FXR [1]; at 100 µM, with 1 µM OCA): 15%; relative response (%) to the model FXR ligand activation (set to be 100%), CDCA 20 µM (human FXR [1]; tested compound 40 µM, CDCA 20 µM, * = significant effect on cellular viability): 95.0±5.7%; relative response (%) to the model FXR ligand activation (set to be 100%), GW4064 1 µM (human FXR [1]; tested compound 40 µM, GW4064 1 µM, * = significant effect on cellular viability): 84.8±6.2%

Q: Which IC50 (FXR [7]) does the source give for `C[C@H](CCC(=O)NCCS(=O)(=O)O)[C@H]1CC[C@H]2[C@@H]3[C@H](O)[C@@H](O)[C@@H]4C[C@H](O)CC[C@]4(C)[C@H]3CC[C@]12C` [tauro-α-MCA] here?
A: 28 µM

Q: Which remaining activity at 10 µM (human FXR [1]; [8]) does the source give for `CCCCCCCCC[C@@]1(O)C[C@@H]2C[C@H](O)CC[C@]2(C)C2CC[C@@]3(C)C(CC[C@@H]3[C@H](C)CCC(=O)O)C21` (stereo partly drawn) [2k, 3α,7α-Dihydroxy-7β-nonyl-5β-cholan-24-oic acid] here?
A: 84.8 ± 1.8%

Q: What about the “FXR activation, agonistic mode (in words)” value (human FXR [2]) of the same compound?
A: significant inhibition of the FXR basal activation

Q: And the IC50 (various cell lines)?
A: ~15 µM

Q: And the IC50 (AML12)?
A: 12.5 µM

Q: And the viability at 24 h, 10 µM (MTS viability assay [3])?
A: 68 ± 1.4%

Q: What about the “CRE-luc activation compared to LCA (in words)” value (GPBAR1) of the same compound?
A: weak or no ability to act as agonists of GPBAR1

Q: What about the IC50 (HepaRG) of the same compound?
A: 18.9 µM

Q: And the viability at 24 h, 10 µM (MTS viability assay [4]; HepG2 cells, HepG2, 24 h)?
A: 79.8 ± 2.5%

Q: What about the viability at 24 h, 10 µM (MTS viability assay [4]; HepaRG cells) of the same compound?
A: 71.6 ± 2.8%

Q: What about the viability at 24 h, 10 µM (MTS viability assay [4]; Huh7 cells, Huh7, 24 h) of the same compound?
A: 118 ± 4.9%

Q: What about the IC50 (Huh7) of the same compound?
A: 21.8 µM

Q: And the IC50 (HepG2)?
A: ~10.9 µM

Q: What about the melting point of the same compound?
A: 78 to 80 °C

Q: Which IC50 (FXR [6]) does the source give for `C[C@H](CCC(=O)NCCS(=O)(=O)O)[C@H]1CC[C@H]2[C@@H]3[C@@H](O)C[C@@H]4C[C@H](O)CC[C@]4(C)[C@H]3CC[C@]12C` [TUDCA, tauro-ursodeoxycholic acid] here?
A: 75.1 µM
